Tests used:
[1] = target: alcool déshydrogénase (ADH), préparation ADH-LYS (polylysine, forme soluble) (Saccharomyces cerevisiae, UniProt P00330); assay: Two-substrate ordered kinetics of alcohol dehydrogenase, soluble polylysine-grafted preparation; format: biochemical; details: compared with the other soluble preparations
Source text: (§1) L'alcool déshydrogénase étant un enzyme suivant une réaction ordonnée à deux substrats, sa cinétique répond à l'équation : [formula] Ka et Kb sont les constantes de type Michaelis-Menten correspondant à la dissociation du complexe ternaire du NAD⁺ et de l'éthanol alors que Kia représente la constante de dissociation du complexe binaire ADH-NAD⁺ (Wratten et Cleland, 1963, Biochemistry 2, 935-941).
(§2) Les valeurs des constantes pour les diverses préparations sont donnés au tableau 3. Nous ne pouvons pas ici interpréter chacune de ces valeurs et nous nous limiterons aux variations les plus importantes. En ce qui concerne le Kia, rappelons que plus le Kia est petit, plus l'affinité de l'enzyme pour la fixation de son premier substrat, le NAD⁺ est grande. Nous remarquons peu de variation pour les préparations solubles excepté pour la polylysine. […] Il faut aussi tenir compte de la charge positive de la lysine qui pourrait inhiber la diffusion du NAD⁺. Dans le cas de Ka et Kb, la fixation des peptides sur l'enzyme augmente les constantes, c'est-à-dire diminue l'affinité de fixation de ces substrats sur les complexes quaternaires de l'enzyme. Dans le cas des enzymes incorporés dans le gel, on constate aussi certains changements mais il faut en plus de l'effet du micro-environnement tenir compte des effets de diffusion. […]

[2] = target: alcool déshydrogénase (ADH), préparation ADH-LYS-PAA (poly-lysine-résine, forme immobilisée) (Saccharomyces cerevisiae, UniProt P00330); assay: Two-substrate ordered kinetics of alcohol dehydrogenase, polylysine-grafted preparation copolymerised in polyacrylamide gel; format: biochemical; details: enzyme incorporated in polyacrylamide gel; apparent value, diffusion effects
Source text: as §1, §2

Sequence of alcool déshydrogénase (ADH), préparation ADH-LYS-PAA (poly-lysine-résine, forme immobilisée) (P00330 2-348): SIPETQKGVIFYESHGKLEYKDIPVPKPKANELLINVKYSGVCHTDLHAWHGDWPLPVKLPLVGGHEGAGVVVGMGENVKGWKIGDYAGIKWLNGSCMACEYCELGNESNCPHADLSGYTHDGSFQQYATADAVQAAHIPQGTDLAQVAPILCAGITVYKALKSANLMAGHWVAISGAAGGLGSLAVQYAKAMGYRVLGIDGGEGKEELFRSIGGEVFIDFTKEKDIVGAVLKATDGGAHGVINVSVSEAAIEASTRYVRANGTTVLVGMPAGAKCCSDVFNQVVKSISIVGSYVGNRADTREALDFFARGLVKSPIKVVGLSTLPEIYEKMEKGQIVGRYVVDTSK
Sequence of alcool déshydrogénase (ADH), préparation ADH-LYS (polylysine, forme soluble) (P00330 2-348): as above

In the case of NC(=O)c1ccc[n+]([C@@H]2O[C@H](COP(=O)([O-])OP(=O)(O)OC[C@H]3O[C@@H](n4cnc5c(N)ncnc54)[C@H](O)[C@@H]3O)[C@@H](O)[C@H]2O)c1 [NAD⁺], the “Kia (constante de dissociation du complexe binaire ADH-NAD⁺)” value [1] was “baisse d'affinité” and the “Kia (constante de dissociation du complexe binaire ADH-NAD⁺)” value [2] was “très faible”.

Reference: patent EP0317544A1, “Method of modifying the micro environment of an enzyme by cross-linking the peptidic molecules, use thereof for making enzymatic reactors requiring the regeneration of the cofactor” (priority 1987, dated 1989)
